What was measured:
[1] = refractive index (Na D-line) (dimensionless); details: 101 kPa, Liquid, Standard Abbe refractometry
[2] = relative permittivity at zero frequency (dimensionless); details: 101 kPa, Liquid, capacitive

CC(=O)c1cccs1 [2-acetylthiophene]
Details | refractive index, [1] | relative permittivity at zero frequency, [2]
278.15 K | – | 32.38
280.65 K | – | 32.01
283.15 K | 1.5705 | 31.64
285.65 K | 1.5692 | 31.28
288.15 K | 1.568 | 30.87
290.65 K | 1.567 | 30.47
293.15 K | 1.5658 | 29.94
295.65 K | 1.5646 | 29.69
298.15 K | 1.5633 | 29.19
300.65 K | 1.5622 | 28.92
303.15 K | 1.5609 | 28.47
305.65 K | 1.5599 | 28.14
308.15 K | 1.5586 | 27.76
310.65 K | 1.5573 | 27.43
313.15 K | 1.5562 | 27.05
315.65 K | 1.555 | 26.75
318.15 K | 1.5538 | 26.32
320.65 K | 1.5526 | 25.95
323.15 K | 1.5514 | 25.68
325.65 K | 1.5502 | 25.33
328.15 K | 1.549 | 25.02
330.65 K | 1.548 | 24.7
333.15 K | 1.5468 | 24.33
335.65 K | 1.5455 | 23.98
338.15 K | 1.5443 | 23.6

From the NIST ThermoML archive (doi:10.1016/j.fluid.2016.10.026)
